Activity calls are given as the source filed them. The rule behind the calls is not given here.
Legend:
Escherichia coli [1] = assay: Bacteriostatic activity against Escherichia coli KCTC 1682 assessed as reduction in colony forming unit at 0.5 times MIC measured for 24 hrs by time kill assay; assay type: functional
Staphylococcus aureus [2] = assay: Antibacterial activity against Staphylococcus aureus KCTC 1621 assessed as reduction in bacterial growth incubated for 24 hrs by CLSI based broth dilution method; assay type: functional; conditions: read-out: MIC100
Candida albicans [3] = assay: Antifungal activity against Candida albicans KCTC 7121 assessed as reduction in fungal growth incubated for 24 hrs by CLSI based broth dilution method; assay type: functional; conditions: read-out: MIC100
[4] = Cytotoxicity against mouse RAW264.7 cells assessed as reduction in cell viability at 20 uM incubated for 24 hrs by MTT assay; assay type: cell-based; conditions: read-out: INH
Escherichia coli [5] = assay: Antibacterial activity against Escherichia coli KCTC 1682 assessed as reduction in bacterial growth incubated for 24 hrs by CLSI based broth dilution method; assay type: functional; conditions: read-out: MIC100
[6] = Therapeutic index, ratio of HC10 for sheep RBC to geometric mean MIC for gram positive bacteria; assay type: toxicity; conditions: sheep red blood cells, read-out: TI
Erythrocyte [7] = assay: Hemolytic activity in sheep RBC assessed as reduction in hemoglobin incubated for 1 hr; assay type: ADME, cell-based, Ovis aries
[8] = Therapeutic index, ratio of HC10 for sheep RBC to geometric mean MIC for gram negative bacteria; assay type: toxicity; conditions: sheep red blood cells, read-out: TI
RAW264.7 [9] = assay: Antiinflammatory activity against mouse RAW264.7 cells assessed as reduction in LPS-induced nitrite level at 5 uM incubated for 24 hrs by Griess reagent based assay relative to control; assay type: functional
Bacillus subtilis = assay: Antibacterial activity against Bacillus subtilis KCTC 3068 assessed as reduction in bacterial growth incubated for 24 hrs by CLSI based broth dilution method; assay type: functional; conditions: read-out: MIC100
Candida albicans [10] = assay: Antifungal activity against Candida albicans KCTC 7965 assessed as reduction in fungal growth incubated for 24 hrs by CLSI based broth dilution method; assay type: functional; conditions: read-out: MIC100
Enterococcus faecium = assay: Antibacterial activity against vancomycin-resistant Enterococcus faecium ATCC 51559 assessed as reduction in bacterial growth incubated for 24 hrs by CLSI based broth dilution method; assay type: functional; conditions: read-out: MIC100
[11] = Antibacterial activity against multidrug-resistant Pseudomonas aeruginosa CCARM 2095 assessed as reduction in bacterial growth incubated for 24 hrs by CLSI based broth dilution method; assay type: functional; conditions: read-out: MIC100
[12] = Cytotoxicity against mouse NIH/3T3 cells assessed as reduction in cell viability at 20 uM incubated for 24 hrs by MTT assay; assay type: cell-based, NIH3T3; conditions: NIH/3T3 cells, read-out: INH
[13] = Antibacterial activity against multidrug-resistant Pseudomonas aeruginosa CCARM 2109 assessed as reduction in bacterial growth incubated for 24 hrs by CLSI based broth dilution method; assay type: functional; conditions: read-out: MIC100
Salmonella typhimurium = assay: Antibacterial activity against Salmonella typhimurium KCTC 1926 assessed as reduction in bacterial growth incubated for 24 hrs by CLSI based broth dilution method; assay type: functional, Salmonella enterica subsp. enterica serovar Typhimurium; conditions: Salmonella enterica, read-out: MIC100
Staphylococcus aureus [14] = assay: Antibacterial activity against methicillin-resistant Staphylococcus aureus CCARM 3089 assessed as reduction in bacterial growth incubated for 24 hrs by CLSI based broth dilution method; assay type: functional; conditions: read-out: MIC100
[15] = system: Staphylococcus epidermidis; assay: Antibacterial activity against Staphylococcus epidermidis KCTC 1917 assessed as reduction in bacterial growth incubated for 24 hrs by CLSI based broth dilution method; assay type: functional; conditions: read-out: MIC100
Erythrocyte [16] = assay: Hemolytic activity in sheep RBC assessed as reduction in hemoglobin at 256 uM incubated for 1 hr; assay type: ADME, cell-based, Ovis aries
RAW264.7 [17] = assay: Antiinflammatory activity against mouse RAW264.7 cells assessed as reduction in LPS-induced TNFalpha level at 10 uM incubated for 24 hrs by […] relative to control; assay type: functional
[18] = Therapeutic index, ratio of HC10 for sheep RBC to geometric mean MIC for yeast; assay type: toxicity; conditions: sheep red blood cells, read-out: TI
Bacteria [19] = assay: Antibacterial activity against Gram negative bacteria assessed as reduction in bacterial growth incubated for 24 hrs by CLSI based broth dilution method; assay type: functional; conditions: read-out: MIC100
Saccharomyces cerevisiae = assay: Antifungal activity against yeast assessed as reduction in fungal growth incubated for 24 hrs by CLSI based broth dilution method; assay type: functional; conditions: read-out: MIC100
Pseudomonas aeruginosa = assay: Antibacterial activity against Pseudomonas aeruginosa KCTC 1637 assessed as reduction in bacterial growth incubated for 24 hrs by CLSI based broth dilution method; assay type: functional; conditions: read-out: MIC100
Bacteria [20] = assay: Antibacterial activity against Gram positive bacteria assessed as reduction in bacterial growth incubated for 24 hrs by CLSI based broth dilution method; assay type: functional; conditions: read-out: MIC100
[21] = Retention time of the compound by RP-HPLC method; assay type: physicochemical
Staphylococcus aureus [22] = assay: Antibacterial activity against methicillin-resistant Staphylococcus aureus CCARM 3090 assessed as reduction in bacterial growth incubated for 24 hrs by CLSI based broth dilution method; assay type: functional; conditions: read-out: MIC100
Staphylococcus aureus [23] = assay: Antibacterial activity against methicillin-resistant Staphylococcus aureus CCARM 3095 assessed as reduction in bacterial growth incubated for 24 hrs by CLSI based broth dilution method; assay type: functional; conditions: read-out: MIC100

Row | Molecule | MIC (Staphylococcus aureus [2]) | MIC (Candida albicans [3]) | cytotoxicity at 24 h, 20 µM [4] | MIC (Escherichia coli [5]) | selectivity ratio [6] | HC10 (Erythrocyte [7]) | selectivity ratio [8] | MIC (Bacillus subtilis) | MIC (Candida albicans [10]) | MIC (Enterococcus faecium) | MIC [11] | cytotoxicity at 24 h, 20 µM [12] | MIC [13] | MIC (Salmonella typhimurium) | MIC (Staphylococcus aureus [14]) | MIC [15] | Activity (Erythrocyte [16]) | selectivity ratio [18] | MIC (Bacteria [19]) | MIC (Saccharomyces cerevisiae) | also measured
1 | CCn1cc(C(=O)O)c(=O)c2ccc(C)nc21 | – | – | – | – | – | – | – | – | – | – | – | – | – | – | – | – | – | – | – | – | Activity (Escherichia coli [1]): inactive
2 | H-LAKKIYRAWKRR-NH2 | 4 µM | 8 µM | < 10% | 8 µM | 36.1 | > 256 µM | 32 | 8 µM | 8 µM | 16 µM | 32 µM | < 10% | 32 µM | 4 µM | 32 µM | 8 µM | Non-Toxic | 64 | 16 µM | 8 µM | inhibition at 5 µM (RAW264.7 [9]): < 10%; inhibition at 10 µM (RAW264.7 [17]): < 10%; MIC (Pseudomonas aeruginosa): 4 µM; MIC (Bacteria [20]): 14.2 µM; Retention_time [21]: 14.1 min; MIC (Staphylococcus aureus [22]): 16 µM; MIC (Staphylococcus aureus [23]): 16 µM
3 | H-LAKKIYRAWKRW-NH2 | 4 µM | 8 µM | < 10% | 16 µM | 37.4 | > 256 µM | 36.6 | 4 µM | 8 µM | 16 µM | 16 µM | < 10% | 32 µM | 2 µM | 32 µM | 8 µM | Non-Toxic | 64 | 14 µM | 8 µM | inhibition at 5 µM (RAW264.7 [9]): < 10%; inhibition at 10 µM (RAW264.7 [17]): < 10%; MIC (Pseudomonas aeruginosa): 4 µM; MIC (Bacteria [20]): 13.7 µM; Retention_time [21]: 17.1 min; MIC (Staphylococcus aureus [22]): 16 µM; MIC (Staphylococcus aureus [23]): 16 µM
4 | H-LAKKIYRKWKRW-NH2 | 4 µM | 8 µM | < 10% | 8 µM | 52.8 | > 256 µM | 67.4 | 4 µM | 8 µM | 8 µM | 16 µM | < 10% | 8 µM | 2 µM | 16 µM | 4 µM | Non-Toxic | 64 | 7.6 µM | 8 µM | inhibition at 5 µM (RAW264.7 [9]): < 10%; inhibition at 10 µM (RAW264.7 [17]): < 10%; MIC (Pseudomonas aeruginosa): 4 µM; MIC (Bacteria [20]): 9.7 µM; Retention_time [21]: 15.1 min; MIC (Staphylococcus aureus [22]): 16 µM; MIC (Staphylococcus aureus [23]): 16 µM
5 | H-QLVPLAIKIYRAWKRR-NH2 | 8 µM | 16 µM | 35% | 32 µM | 8.3 | 180 µM | 7 | 16 µM | 8 µM | 32 µM | 32 µM | 50% | 32 µM | 16 µM | 32 µM | 16 µM | Non-Toxic | 15 | 25.6 µM | 12 µM | MIC (Pseudomonas aeruginosa): 16 µM; MIC (Bacteria [20]): 21.7 µM; Retention_time [21]: 24.1 min; MIC (Staphylococcus aureus [22]): 16 µM; MIC (Staphylococcus aureus [23]): 32 µM
6 | H-VPLAIKIYRAWKRR-NH2 | 8 µM | 16 µM | < 10% | 16 µM | 25.6 | > 256 µM | 26.7 | 4 µM | 16 µM | 16 µM | 32 µM | < 10% | 32 µM | 8 µM | 32 µM | 16 µM | Non-Toxic | 32 | 19.2 µM | 16 µM | MIC (Pseudomonas aeruginosa): 8 µM; MIC (Bacteria [20]): 20 µM; Retention_time [21]: 21.7 min; MIC (Staphylococcus aureus [22]): 32 µM; MIC (Staphylococcus aureus [23]): 32 µM

Reference: ChEMBL document CHEMBL4765389, “Antimicrobial and anti-inflammatory activities of short dodecapeptides derived from duck cathelicidin: Plausible mechanism of bactericidal action and endotoxin neutralization” (Eur J Med Chem, 2020)
